Measurements taken from patent US12171756B2, “NLRP3 modulators” (Innate Tumor Immunity, Inc., priority 2017, dated 2024).
Read-outs that look alike come from different tables or passages of the source.

Experiments:
human TLR7 = biological target: T1, human TLR7 (Homo sapiens, UniProt Q9NYK1); assay: In vitro human TLR7 binding reporter assay (HEK-Blue, NF-kB/AP1-inducible SEAP); format: cell-based; conditions: HEK-Blue human TLR7 SEAP reporter cells; activity range classes; read-out: TLR7 Agonist EC50
T1 construct: host or cells: human HEK-Blue cells (HEK293-derived) co-expressing TLR7 and an NF-kB/AP1-inducible SEAP reporter
T1 sequence (Q9NYK1 27-1049): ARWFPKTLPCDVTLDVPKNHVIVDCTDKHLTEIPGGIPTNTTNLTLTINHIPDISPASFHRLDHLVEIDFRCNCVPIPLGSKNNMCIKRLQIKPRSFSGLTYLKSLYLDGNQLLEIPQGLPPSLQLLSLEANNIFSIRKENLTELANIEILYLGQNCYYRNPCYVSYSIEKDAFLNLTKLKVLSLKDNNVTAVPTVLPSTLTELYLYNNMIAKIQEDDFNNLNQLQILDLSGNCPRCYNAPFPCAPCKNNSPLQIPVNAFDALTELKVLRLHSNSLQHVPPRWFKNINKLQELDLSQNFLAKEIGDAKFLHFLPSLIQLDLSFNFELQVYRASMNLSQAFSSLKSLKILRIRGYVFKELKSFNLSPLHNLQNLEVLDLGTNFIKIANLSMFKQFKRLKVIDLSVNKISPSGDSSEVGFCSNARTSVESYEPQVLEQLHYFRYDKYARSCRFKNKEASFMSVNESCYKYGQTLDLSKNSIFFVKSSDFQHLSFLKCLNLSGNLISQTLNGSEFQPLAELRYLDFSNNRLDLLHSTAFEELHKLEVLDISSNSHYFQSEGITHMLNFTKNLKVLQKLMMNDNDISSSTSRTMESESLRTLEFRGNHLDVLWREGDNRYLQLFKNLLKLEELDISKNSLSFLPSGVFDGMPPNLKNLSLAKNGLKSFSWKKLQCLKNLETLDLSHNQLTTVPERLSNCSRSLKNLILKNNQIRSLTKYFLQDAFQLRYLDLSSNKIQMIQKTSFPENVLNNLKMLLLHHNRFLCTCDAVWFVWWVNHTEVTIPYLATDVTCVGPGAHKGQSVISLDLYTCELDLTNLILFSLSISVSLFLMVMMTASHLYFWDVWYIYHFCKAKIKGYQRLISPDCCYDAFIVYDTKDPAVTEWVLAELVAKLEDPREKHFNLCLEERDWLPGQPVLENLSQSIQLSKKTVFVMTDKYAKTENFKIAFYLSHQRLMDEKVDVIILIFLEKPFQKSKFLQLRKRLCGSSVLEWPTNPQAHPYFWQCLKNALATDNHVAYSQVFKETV
Summary of the method: (§1)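 Cells are seeded and grown for 24 h. Compounds or DMSO are then added and incubated 18 h at 37 °C. Quanti-Blue is added, and SEAP is read after thirty minutes. EC50 values are normalized, with RLU from 50 μM reference standard setting 100% Ymax.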

human TLR8 = biological target: T2, human TLR8 (Homo sapiens, UniProt Q9NR97); assay: In vitro human TLR8 binding reporter assay (HEK-Blue, NF-kB/AP1-inducible SEAP); format: cell-based; conditions: HEK-Blue human TLR8 SEAP reporter cells; activity range classes; read-out: TLR8 Agonist EC50
T2 construct: host or cells: human HEK-Blue cells (HEK293-derived) co-expressing TLR8 and an NF-kB/AP1-inducible SEAP reporter
T2 sequence (Q9NR97 27-1041): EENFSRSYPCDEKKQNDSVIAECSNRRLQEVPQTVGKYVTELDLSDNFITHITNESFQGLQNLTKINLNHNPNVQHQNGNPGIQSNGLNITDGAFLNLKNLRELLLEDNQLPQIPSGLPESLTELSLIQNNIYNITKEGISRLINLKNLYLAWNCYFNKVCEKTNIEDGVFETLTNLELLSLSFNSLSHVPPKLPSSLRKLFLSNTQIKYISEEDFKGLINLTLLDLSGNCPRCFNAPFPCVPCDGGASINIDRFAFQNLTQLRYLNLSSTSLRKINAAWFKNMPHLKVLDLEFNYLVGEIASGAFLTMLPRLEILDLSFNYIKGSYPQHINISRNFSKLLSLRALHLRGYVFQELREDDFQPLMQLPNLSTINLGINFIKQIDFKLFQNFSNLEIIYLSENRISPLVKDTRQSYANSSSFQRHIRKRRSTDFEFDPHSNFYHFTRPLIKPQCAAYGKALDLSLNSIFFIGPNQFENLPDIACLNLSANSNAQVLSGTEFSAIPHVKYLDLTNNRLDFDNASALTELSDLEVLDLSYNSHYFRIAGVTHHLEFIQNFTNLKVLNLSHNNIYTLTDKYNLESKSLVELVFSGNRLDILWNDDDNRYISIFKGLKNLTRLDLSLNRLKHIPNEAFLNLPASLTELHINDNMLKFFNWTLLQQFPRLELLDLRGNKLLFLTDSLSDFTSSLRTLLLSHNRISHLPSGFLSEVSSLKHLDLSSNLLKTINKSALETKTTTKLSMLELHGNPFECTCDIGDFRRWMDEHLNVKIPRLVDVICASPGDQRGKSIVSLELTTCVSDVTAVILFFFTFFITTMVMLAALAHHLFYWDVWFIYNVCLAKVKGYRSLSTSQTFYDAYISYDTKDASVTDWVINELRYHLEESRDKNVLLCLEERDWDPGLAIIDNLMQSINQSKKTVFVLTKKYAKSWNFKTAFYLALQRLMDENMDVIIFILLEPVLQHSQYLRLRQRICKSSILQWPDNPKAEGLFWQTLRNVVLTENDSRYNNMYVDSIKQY
Summary of the method: as §1

[1] = system: IL-1β production in PMA-differentiated THP-1 cells; assay: Measurement of IL-1β production in PMA-differentiated THP-1 cells (ELISA, 4 hours); format: cell-based, human; conditions: assayed using one or more of the described procedures, read-out: NLRP3 hIL1B IC50
Summary of the method: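 IL-1β released into supernatant was measured by ELISA after a 4-hour compound exposure (final DMSO 1%, concentrations such as 100 down to 0.1 μM). Cells: THP-1 pretreated 24 h with 10 μg/ml PMA, then trypsinized and seeded at 1×10^6/ml in 2% FBS RPMI.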

[2] = Homo sapiens, THP-1, human IL-1β production

| Compound | EC50 (human TLR7) | EC50 (human TLR8) | IC50 [1, 2] | IC50 ([1]; human IL-1β production) |
| --- | --- | --- | --- | --- |
| Nc1cc(NCCc2cccnc2)c2ccc(-c3ccn[nH]3)cc2n1 [Compound 284] | > 100 µM | > 100 µM | 0.38 µM | – |
| Nc1cc(N[C@H]2CC[C@H](O)CC2)c2ccc(-c3ccn[nH]3)cc2n1 [Compound 282] | > 100 µM | > 100 µM | 5.66 µM | – |
| Cc1nc(CNc2cc(N)nc3cc(-c4ccn[nH]4)ccc23)cs1 [Compound 156] | > 100 µM | > 100 µM | 0.2 µM | – |
| CC(=O)NCCc1cc(N)nc2cc(-c3ccn[nH]3)ccc12 [Compound 217, N-(2-(2-amino-7-(1H-pyrazol-5-yl)quinolin-4-yl)ethyl)acetamide] | > 100 µM | > 100 µM | 14.3 µM | – |
| N#CCCCNc1cc(N)nc2cc(-c3ccn[nH]3)ccc12 [Compound 222] | > 100 µM | > 100 µM | 0.06 µM | – |
| Nc1cc(OCC2(CO)COC2)c2ccc(-c3ccsc3)cc2n1 [Compound 332, (3-(((2-amino-7-(thiophen-3-yl)quinolin-4-yl)oxy)methyl)oxetan-3-yl)methanol] | > 100 µM | > 100 µM | 0.65 µM | – |
| Nc1cc(N[C@@H]2CCCC[C@H]2O)c2ccc(-c3ccn[nH]3)cc2n1 [Compound 162] | > 100 µM | > 100 µM | 2.49 µM | – |
| Cn1ccnc1C(=O)NCCCNc1cc(N)nc2cc(-c3ccn[nH]3)ccc12 [Compound 209, N-(3-((2-amino-7-(1H-pyrazol-5-yl)quinolin-4-yl)amino)propyl)-1-methyl-1H-imidazole-2-carboxamide, 2TFA] | > 100 µM | > 100 µM | 1.96 µM | – |
| C[C@@H](O)CNc1cc(N)nc2cc(-c3ccn[nH]3)ccc12 [Compound 133] | > 100 µM | > 100 µM | 0.3 µM | – |
| Nc1cc(N[C@H]2CCOC2)c2ccc(-c3ccn[nH]3)cc2n1 [Compound 277] | > 100 µM | > 100 µM | 0.22 µM | – |
| Nc1cc(NC[C@@H]2CCCNC2)c2ccc(-c3ccn[nH]3)cc2n1 [Compound 326] | > 100 µM | > 100 µM | 24.7 µM | – |
| Nc1cc(NCc2ncccn2)c2ccc(-c3ccn[nH]3)cc2n1 [Compound 316, 7-(1H-pyrazol-5-yl)-N4-(pyrimidin-2-ylmethyl)quinoline-2,4-diamine] | > 100 µM | > 100 µM | 0.56 µM | – |
| Nc1cc(NCc2cnc[nH]2)c2ccc(-c3ccn[nH]3)cc2n1 [Compound 159] | > 100 µM | > 100 µM | 0.52 µM | – |
| Nc1cc(NCCc2ccccn2)c2ccc(-n3cccn3)cc2n1 [Compound 293] | > 100 µM | > 100 µM | 0.87 µM | – |
| Nc1cc(N[C@@H]2CCC[C@@H]2O)c2ccc(-n3cccn3)cc2n1 [Compound 295] | > 100 µM | > 100 µM | 0.31 µM | – |
| Nc1nc2cc(-c3cc[nH]n3)ccc2cc1CCCO [Compound 103, 3-[2-amino-7-(1H-pyrazol-3-yl)quinolin-3-yl]propan-1-ol] | > 100 µM | > 100 µM | 1.6 µM | – |

| Compound | EC50 (human TLR7) | EC50 (human TLR8) | IC50 [1, 2] | IC50 ([1]; human IL-1β production) |
| --- | --- | --- | --- | --- |
| CC(=O)NCCNc1cc(N)nc2cc(-n3cccn3)ccc12 [Compound 306] | > 100 µM | > 100 µM | 1.1 µM | – |
| 3-[4-amino-7-(1H-pyrazol-3-yl)-[1,3]oxazolo[4,5-c]quinolin-2-yl]propan-1-ol [Compound 107] | > 100 µM | > 100 µM | – | 0.34 µM |
| Nc1cc(N[C@H]2CCCC[C@H]2O)c2ccc(-c3ccn[nH]3)cc2n1 [Compound 250] | > 100 µM | > 100 µM | – | 1.72 µM |
| Nc1cc(N[C@@H]2CCNC2)c2ccc(-c3ccn[nH]3)cc2n1 [Compound 323] | > 100 µM | > 100 µM | – | 5.72 µM |
| CN(C)C(=O)NCCCNc1cc(N)nc2cc(-c3ccn[nH]3)ccc12 [Compound 214, 3-(3-((2-amino-7-(1H-pyrazol-5-yl)quinolin-4-yl)amino)propyl)-1,1-dimethylurea, 2TFA] | > 100 µM | > 100 µM | 4.61 µM | – |
| Nc1cc(NCc2nc[nH]n2)c2ccc(-n3cccn3)cc2n1 [Compound 294] | > 100 µM | > 100 µM | 0.21 µM | – |
| Nc1cc(N2CCCC(CO)C2)c2ccc(-c3ccn[nH]3)cc2n1 (stereo not drawn) [Compound 274] | > 100 µM | > 100 µM | 1.98 µM | – |
| Nc1cc(N[C@@H]2CCCOC2)c2ccc(-c3ccn[nH]3)cc2n1 [Compound 289] | > 100 µM | > 100 µM | 0.85 µM | – |
| CS(=O)(=O)NCCNc1cc(N)nc2cc(-c3ccn[nH]3)ccc12 [Compound 206, N-(2-((2-amino-7-(1H-pyrazol-5-yl)quinolin-4-yl)amino)ethyl)methanesulfonamide] | > 100 µM | > 100 µM | 0.84 µM | – |
| Nc1cc(N2CC[C@H](O)C2)c2ccc(-c3ccn[nH]3)cc2n1 [Compound 142] | > 100 µM | > 100 µM | 1.43 µM | – |
| Nc1ccc2ccc(-c3ccn[nH]3)cc2n1 [Compound 314, 7-(1H-pyrazol-5-yl)quinolin-2-amine] | > 100 µM | > 100 µM | 1.8 µM | – |
| Nc1cc(NCCc2ncn[nH]2)c2ccc(-c3ccn[nH]3)cc2n1 [Compound 224] | > 100 µM | > 100 µM | 0.22 µM | – |
| CC(C)(CNc1cc(N)nc2cc(-c3ccn[nH]3)ccc12)S(C)(=O)=O [Compound 223] | > 100 µM | > 100 µM | 1.35 µM | – |
| Nc1nc2cc(-c3ccn[nH]3)ccc2cc1CN1CCCC1=O [Compound 119] | > 100 µM | 20 to 100 µM | 3.07 µM | – |
| CN(C)C(=O)CCNc1cc(N)nc2cc(-c3ccn[nH]3)ccc12 [Compound 138] | 1 to 20 µM | > 100 µM | 5.95 µM | – |
| Nc1cc(OCC2(CO)CCC2)c2ccc(-c3cccs3)cc2n1 [Compound 334, (1-(((2-amino-7-(thiophen-2-yl)quinolin-4-yl)oxy)methyl)cyclobutyl)methanol] | > 100 µM | > 100 µM | 2.62 µM | – |
